Patent US5554620A, “Substituted 6,11-ethano-6,11-dihydrobenzo[b] quinolizinium salts and compositions and methods of use thereof” (Sterling Winthrop Inc., priority 1994, dated 1996)

These molecules were tested against PCP receptor (assay: [3H]TCP radioreceptor assay (binding to PCP recognition sites)). Conditions: [3H]TCP approx. 1 nM, rat brain membranes; mean of at least two determinations.
Design: species or system rat (male Sprague-Dawley, whole brain)
Procedure: [^3 H]TCP Radioreceptor Assay
[^3 H]TCP binding to PCP recognition sites was performed as described by Vignon et al. Brain Research 1983, 280, 194-197. Male Sprague-Dawley rats were sacrificed by decapitation, and whole brains were homogenized in 10 volumes (wt/vol) of cold Tris-HCl buffer (50 mM, pH 7.7) using a Brinkmann Polytron (setting 6, 30 sec). The homogenate was centrifuged at 40,000×g for 10 min at 4° C. The supernatant was decanted, and the homogenization and centrifugation steps were repeated twice as described above. Following this, the pellet was resuspended in Tris-HCl (5 mM, pH 7.7) at a tissue concentration of 0.5-0.75 g/mL, and one mL aliquots were frozen at -70° C. until use. The binding characteristics for PCP recognition sites were not altered by the freezing of membrane suspensions.
On the day of the assay, membrane aliquots were thawed, resuspended in fresh 5 mM Tris-HCl buffer at a tissue concentration of 1 mg/mL, and stored on ice until use. Each assay tube contained 100 μl of [^3 H]TCP at a final concentration of approximately 1 nM, 100 μL of various concentrations of the compounds of interest, 500 μL of the tissue suspension and 300 μL of buffer to a final assay volume of 1 mL and a final protein concentration of 0.5 mg/tube. Non-specific binding was defined by addition of a final concentration of 100 μM PCP to blank tubes. All tubes were incubated at room temperature for 25 min before termination of the reaction by rapid filtration over Whatman GF/B glass fiber filters that had been presoaked in a solution of 0.5% polyethylenimine for at least 1 hr prior to use. Filters were washed with three 4 mL volumes of cold Tris buffer. Following addition of scintillation cocktail, the amount of bound radioactivity was determined by liquid scintillation spectrometry using a Beckman LS 5000TA liquid scintillation counter with an efficiency for tritium of approximately 55%. Inhibition constants (Ki values) were calculated using the EBDA/LIGAND program (McPherson, J. Pharmacol. Meth. 1985, 14, 213-228), purchased from ElsevierBiosoft, Inc. Results are reported as the Ki values (in nM) which are expressed as the mean of at least two separate determinations; or as a percent (%) inhibition of binding at 10 μM.

SMILES	Ki [nM]
Oc1cccc(C2(c3cccc(O)c3)CC3c4ccccc4C2c2cccc[n+]23)c1.[O-][Cl+3]([O-])([O-])[O-] (stereo not shown) [Example 177, 6,11-ethano-12,12-di(m-hydroxyphenyl)-6,11-dihydrobenzo[b]quinolizinium perchlorate]	13.8
c1ccc2c(c1)CC1C2C2c3ccccc3C1[n+]1ccccc12 (single isomer, unassigned) [Example 2(a), 6,11[[2',3']-indanyl]6,11-dihydrobenzo[b]quinolizinium chloride]	123
C#CC1(c2ccccc2)CC2c3ccccc3C1c1cccc[n+]12 (single isomer, unassigned) [Example 56, 6,11-ethano-12-phenyl-12-ethynyl-6,11-dihydrobenzo[b]quinolizinium hexafluorophosphate]	56
CCCCCCCCOc1cccc2c1C1c3cccc[n+]3C2CC1(c1ccoc1)c1ccoc1.[O-][Cl+3]([O-])([O-])[O-] (stereo not shown) [Example 172, 6,11-ethano-12,12-di(3-furyl)-10-octyloxy-6,11-dihydrobenzo[b]quinolizinium perchlorate]	3380
Clc1cccc2[n+]1C1CC(c3ccoc3)(c3ccoc3)C2c2ccccc21.[O-][Cl+3]([O-])([O-])[O-] (stereo not shown) [192(g), 6,11-ethano-12,12-di(3-furyl)-4-chloro-6,11-dihydrobenzo[b]-quinolizinium perchlorate]	633
COc1cccc(C2(c3cccc(OC)c3)CC3c4ccccc4C2c2cccc[n+]23)c1 (stereo not shown) [35(c), 6,11-ethano-12,12-di(m-methoxyphenyl)-6,11-dihydrobenzo[b]quinolizinium chloride]	41
CC12CC(c3ccccc3)(c3ccccc3)C(c3c(O)cccc31)c1cccc[n+]12 (stereo not shown) [38(c), 6,11-ethano-12,12-diphenyl-10-hydroxy-6-methyl-6,11-dihydrobenzo[b]quinolizinium chloride]	16.6
CC(C)(C)C(=O)Oc1cccc2c1C1c3cccc[n+]3C2CC1(c1ccoc1)c1ccoc1 (stereo not shown) [Example 174, 6,11-ethano-12,12-di(3-furyl)-10-trimethylacetyloxy-6,11dihydrobenzo-[b]quinolizinium chloride]	23.7
c1ccc2c(c1)C1CC(c3ccoc3)(c3ccoc3)C2c2c3ccccc3cc[n+]21 (stereo not shown) [180(g), 14,14-di(3-furyl)-8,13-ethano-8,13-dihydrodibenzo[a,g]quinolizinium chloride]	19.9
COc1cccc2c1C1c3cccc[n+]3C2CC1(c1ccccc1)c1ccccc1.[O-][Cl+3]([O-])([O-])[O-] (stereo not shown) [25(c), 6,11-ethano-12,12-diphenyl-10-methoxy-6,11-dihydrobenzo[b]quinolizinium perchlorate]	39.3
Oc1c(Cl)ccc2c1C1c3cccc[n+]3C2CC1(c1ccoc1)c1ccoc1 (stereo not shown) [188(c), 6,11-ethano-12,12-di(3-furyl)-9-chloro-10-hydroxy-6,11-dihydrobenzo]b]quinolizinium chloride]	23.6
c1ccc(C2(c3ccccc3)C3c4ccccc4C([n+]4ccccc43)C23CC3)cc1 (stereo not shown) [22(b), 6,11-ethano-12,12-diphenyl-13,13-spirocyclopropyl-6,11-dihydrobenzo[b]quinolizinium chloride]	9.07
CCOC1(c2ccoc2)CC2(C)c3ccccc3C1c1cccc[n+]12 [13(b), 6,11-ethano-12-(3-furyl)-12-ethoxy-6-methyl-6,11-dihydrobenzo[b]quinolizinium monobenzoyl-D-tartarate]	45
CCOC(=O)CC(C)(C)C(=O)Oc1cccc2c1C1c3cccc[n+]3C2CC1(c1ccoc1)c1ccoc1 (stereo not shown) [178(d), 6,11-ethano-12,12-di(3-furyl)-10-(OC(O)C(CH3)2 CH2 CO2Et)-6,11-dihydrobenzo[b]quinolizinium chloride]	1430
COc1c(Cl)ccc2c1C1c3cccc[n+]3C2CC1(c1ccoc1)c1ccoc1 (stereo not shown) [187(g), 6,11-ethano-12,12-di(3-furyl)-9-chloro-10-methoxy-6,11-dihydrobenzo[b]quinolizinium chloride]	63.7
CCOC(=O)C=CC(=O)Oc1cccc2c1C1c3cccc[n+]3C2CC1(c1ccoc1)c1ccoc1 (stereo not shown) [167(c), 6,11-ethano-12,12-di(3-furyl)-10-(OC(O)CH=CHCO2 Et)-6,11-dihydrobenzo[b]quinolizinium perchlorate]	7.68
COC(=O)C12CC(c3ccoc3)(c3ccoc3)C(c3ccccc31)c1cccc[n+]12 (stereo not shown) [176(d), 6,11-ethano-12,12-di(3-furyl)-6-methoxycarbonyl-6,11-dihydrobenzo[b]quinolizinium chloride]	39.4
c1ccc2c(c1)C1CC(c3ncc[nH]3)(c3ncc[nH]3)C2c2cccc[n+]21 (stereo not shown) [173(e), 6,11-ethano-12,12-di(imidazol-2-yl)-6,11-dihydrobenzo[b]quinolizinium chloride]	1670
COc1ccc2c(c1)C1c3cccc[n+]3C2CC1(c1ccccc1)c1ccccc1 (stereo not shown) [27(E), 6,11-ethano-12,12-diphenyl-9-methoxy-6,111-dihydrobenzo[b]quinolizinium chloride 1/2 hydrate]	10.4
Fc1ccc2c(c1)C1c3cccc[n+]3C2CC1(c1cc[nH]n1)c1cc[nH]n1 (stereo not shown) [198(b), 6,11-ethano-12,12-di-(pyrazol-3-yl)]-9-fluoro-6,11-dihydrobenzo-[b]quinolizinium chloride]	11.7
c1ccc2c(c1)C1C3CCc4occc4C3(c3cc4ccccc4o3)C2c2cccc[n+]21 (stereo not shown) [10(c-G), 6,11[[5',4']-4'-(2-benzofuryl)-4',5',6',7'-tetrahydrobenzofuryl]6,11-dihydrobenzo[b]quinolizinium hexafluorophosphate]	4450
CC1C2c3ccccc3C(c3cccc[n+]32)C1(c1ccccc1)c1ccccc1 (stereo not shown) [Example 18, 6,11-ethanol-12,12-diphenyl-13-methyl-6,11-dihydrobenzo[b]quinolizinium perchlorate]	19.5
O=[N+]([O-])c1cccc2c1C1CC(c3ccoc3)(c3ccoc3)C2c2cccc[n+]21.[O-][Cl+3]([O-])([O-])[O-] (single isomer, unassigned) [Example 201(c), 6,11-ethano-12,12-di(3-furyl)-7-nitro-6,11-dihydrobenzo[b]quinolizinium perchlorate]	3430
CC(=O)Oc1cccc2c1C1c3cccc[n+]3C2CC1(c1ccoc1)c1ccoc1 (stereo not shown) [Example 169, 6,11-ethano-12,12-di(3-furyl)-10-acetyloxy-6,11-dihydrobenzo-[b]quinolizinium chloride]	3.58

Same assay, conditions: [3H]TCP approx. 1 nM, rat brain membranes; mean of at least two determinations; hydrate

SMILES	Ki [nM]
CC12CC(c3ccccc3)(c3ccccc3)C(c3ccccc31)c1cccc[n+]12 (stereo not shown) [Example 21, 6,11-ethano-12,12-diphenyl-6-methyl-6,11-dihydrobenzo[b]quinolizinium chloride hydrate]	13

Same assay, conditions: inhibition of [3H]TCP binding at 10 μM

SMILES	[3H]TCP percent inhibition @ 10 μm [%]
[Cl-].c1ccc2c(c1)C1CC(c3ccncc3)(c3ccncc3)C2c2cccc[n+]21 (stereo not shown) [49(E), 6,11-ethano-12,12-di(4-pyridyl)-6,11-dihydrobenzo[b]quinolizinium chloride]	54
COc1ccc(CN(c2ccc(C3(c4ccc(N(Cc5ccc(OC)cc5)S(C)(=O)=O)cc4)CC4c5ccccc5C3c3cccc[n+]34)cc2)S(C)(=O)=O)cc1 (stereo not shown) [29(c), 6,11-ethano-12,12-di[4-(N-p-methoxybenzyl-N-methylsulfonylamino)phenyl]-6,11-dihydrobenzo[b]quinolizinium perchlorate 1/2 ethyl acetate]	31
Cc1ccc(S(=O)(=O)n2nccc2C2(c3ccoc3)CC3c4ccccc4C2c2cccc[n+]23)cc1.[Br-] (single isomer, unassigned) [Example 184(d), 6,11-ethano-12-(3-furyl)-12-[1-(p-toluenesulfonyl)pyrazol-5-yl]-6,11-dihydrobenzo[b]quinolizinium bromide]	53
Brc1ccc(C2(c3ccc(Br)cc3)CC3c4ccccc4C2c2cccc[n+]23)cc1 (stereo not shown) [23(c), 6,11-ethano-12,12-di-p-bromophenyl-6,11-dihydrobenzo[b]quinolizinium chloride]	22
Cc1ccc(C2(c3ccc(C)cc3)CC3c4ccccc4C2c2cccc[n+]23)cc1.[Cl-] (stereo not shown) [30(c), 6,11-ethano-12,12-di-(p-methylphenyl)-6,11-dihydrobenzo[b]quinolizinium chloride]	22
Clc1ccc(C2(c3ccc(Cl)cc3)CC3c4ccccc4C2c2cccc[n+]23)cc1.F[P-](F)(F)(F)(F)F (stereo not shown) [43(b), 6,11-ethano-12,12-di(p-chlorophenyl)-6,11-dihydrobenzo[b]quinolizinium hexafluorophosphate]	45
